Active and inactive are the calls of the source. The calls are words filed in the database; no cut-off is given here.
Key:
[1] = Intrinsic clearance in human liver microsomes; type: ADME, Microsome; conditions: read-out: CLH
[2] = Apparent permeability from apical to basolateral side in MDCK cells at 50 umol/L at pH 7.4 incubated for 30 mins by LC-MS/MS analysis; type: ADME, cell-based, Canis lupus familiaris; conditions: dog
[3] = Half life in Sprague-Dawley rat at 1 mg/kg, iv; type: ADME, organism-based; conditions: in vivo
[4] = Protein binding in Sprague-Dawley rat brain; type: ADME, tissue-based; conditions: read-out: PB (converted)
[5] = target: BDNF/NT-3 growth factors receptor (Homo sapiens, UniProt Q16620); assay: Inhibition of human GST-tagged TRKB (456 to 822) expressed in baculovirus expression system using TK-biotin peptide as substrate incubated for 45 min by TR-FRET assay
Sequence of BDNF/NT-3 growth factors receptor (Q16620 whole entry): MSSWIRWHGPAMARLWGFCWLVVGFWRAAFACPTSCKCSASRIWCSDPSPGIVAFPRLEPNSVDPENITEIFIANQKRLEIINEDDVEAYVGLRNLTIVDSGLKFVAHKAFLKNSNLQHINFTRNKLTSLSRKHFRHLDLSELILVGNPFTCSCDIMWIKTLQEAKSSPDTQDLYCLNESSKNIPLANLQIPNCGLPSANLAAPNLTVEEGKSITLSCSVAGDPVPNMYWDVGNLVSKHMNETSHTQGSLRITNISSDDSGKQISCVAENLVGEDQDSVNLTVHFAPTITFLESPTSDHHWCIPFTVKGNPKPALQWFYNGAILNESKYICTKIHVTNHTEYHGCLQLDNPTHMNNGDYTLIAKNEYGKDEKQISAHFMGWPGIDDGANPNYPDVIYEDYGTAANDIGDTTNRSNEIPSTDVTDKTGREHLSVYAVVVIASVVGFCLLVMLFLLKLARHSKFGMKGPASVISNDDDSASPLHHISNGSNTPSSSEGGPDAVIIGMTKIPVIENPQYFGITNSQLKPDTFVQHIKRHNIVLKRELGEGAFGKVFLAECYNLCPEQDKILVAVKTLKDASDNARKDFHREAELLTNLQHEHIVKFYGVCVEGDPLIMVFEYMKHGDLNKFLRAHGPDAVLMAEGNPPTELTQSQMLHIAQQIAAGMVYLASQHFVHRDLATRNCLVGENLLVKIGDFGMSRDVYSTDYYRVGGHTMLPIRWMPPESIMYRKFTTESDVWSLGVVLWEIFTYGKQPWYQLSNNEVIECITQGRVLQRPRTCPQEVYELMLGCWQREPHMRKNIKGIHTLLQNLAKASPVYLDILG

[6] = Unbound drug level in brain of CFA induced Sprague-Dawley rat at 4 mg/kg, po after 1 hr; type: ADME, organism-based; conditions: in vivo, BLD = below limit of detection
Rattus norvegicus [7] = assay: Unbound drug level in plasma of CFA induced Sprague-Dawley rat at 100 mg/kg, po after 1 hr; type: ADME, organism-based; conditions: in vivo
[8] = Unbound drug level in brain of CFA induced Sprague-Dawley rat at 100 mg/kg, po after 1 hr; type: ADME, organism-based; conditions: in vivo
Rattus norvegicus [9] = assay: Antinociceptive activity in CFA induced thermal hypersensitivity Sprague-Dawley rat model assessed as increase in paw withdrawal latency at 4 mg/kg, po after 1 hr; type: functional, organism-based
[10] = target: Aurora kinase A (Homo sapiens) (UniProt O14965); assay: Inhibition of recombinant human full length N-terminal GST/His6-tagged Aurora-A (M1 to S403) expressed in Sf9 insect cells at 20 nM using phosphatidylserine as substrate incubated for 60 mins in presence of [33P]-ATP by scintillation counting method
Sequence of Aurora kinase A (Homo sapiens) (O14965 whole entry): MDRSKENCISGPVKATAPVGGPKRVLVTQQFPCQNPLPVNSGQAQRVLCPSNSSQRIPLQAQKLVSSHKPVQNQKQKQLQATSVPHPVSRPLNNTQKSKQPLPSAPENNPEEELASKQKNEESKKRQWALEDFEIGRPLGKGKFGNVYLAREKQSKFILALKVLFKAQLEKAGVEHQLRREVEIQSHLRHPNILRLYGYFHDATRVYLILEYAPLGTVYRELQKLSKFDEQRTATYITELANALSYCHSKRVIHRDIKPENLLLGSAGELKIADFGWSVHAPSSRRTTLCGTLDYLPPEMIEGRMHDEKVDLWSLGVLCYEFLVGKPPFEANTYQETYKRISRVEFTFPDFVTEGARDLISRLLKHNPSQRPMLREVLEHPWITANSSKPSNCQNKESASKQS

[11] = target: Dual specificity tyrosine-phosphorylation-regulated kinase 1A (Homo sapiens) (UniProt Q13627); assay: Inhibition of DYRK1A (unknown origin) at 20 nM using phosphatidylserine as substrate incubated for 60 mins in presence of [33P]-ATP by scintillation counting method
[12] = target: Inhibitor of nuclear factor kappa-B kinase subunit beta (Homo sapiens) (UniProt O14920); assay: Inhibition of recombinant human full length N-terminal GST/His6-tagged IKK-beta (M1 to S756) expressed in Sf9 insect cells at 20 nM using phosphatidylserine as substrate incubated for 60 mins in presence of [33P]-ATP by scintillation counting method
[13] = target: Tyrosine-protein kinase JAK1 (Homo sapiens) (UniProt P23458); assay: Inhibition of recombinant human N-terminal GST/His6-tagged JAK1 wt (L583 to K1154) expressed in Sf9 insect cells at 20 nM using phosphatidylserine as substrate incubated for 60 mins in presence of [33P]-ATP by scintillation counting method
Sequence of Tyrosine-protein kinase JAK1 (Homo sapiens) (P23458 whole entry): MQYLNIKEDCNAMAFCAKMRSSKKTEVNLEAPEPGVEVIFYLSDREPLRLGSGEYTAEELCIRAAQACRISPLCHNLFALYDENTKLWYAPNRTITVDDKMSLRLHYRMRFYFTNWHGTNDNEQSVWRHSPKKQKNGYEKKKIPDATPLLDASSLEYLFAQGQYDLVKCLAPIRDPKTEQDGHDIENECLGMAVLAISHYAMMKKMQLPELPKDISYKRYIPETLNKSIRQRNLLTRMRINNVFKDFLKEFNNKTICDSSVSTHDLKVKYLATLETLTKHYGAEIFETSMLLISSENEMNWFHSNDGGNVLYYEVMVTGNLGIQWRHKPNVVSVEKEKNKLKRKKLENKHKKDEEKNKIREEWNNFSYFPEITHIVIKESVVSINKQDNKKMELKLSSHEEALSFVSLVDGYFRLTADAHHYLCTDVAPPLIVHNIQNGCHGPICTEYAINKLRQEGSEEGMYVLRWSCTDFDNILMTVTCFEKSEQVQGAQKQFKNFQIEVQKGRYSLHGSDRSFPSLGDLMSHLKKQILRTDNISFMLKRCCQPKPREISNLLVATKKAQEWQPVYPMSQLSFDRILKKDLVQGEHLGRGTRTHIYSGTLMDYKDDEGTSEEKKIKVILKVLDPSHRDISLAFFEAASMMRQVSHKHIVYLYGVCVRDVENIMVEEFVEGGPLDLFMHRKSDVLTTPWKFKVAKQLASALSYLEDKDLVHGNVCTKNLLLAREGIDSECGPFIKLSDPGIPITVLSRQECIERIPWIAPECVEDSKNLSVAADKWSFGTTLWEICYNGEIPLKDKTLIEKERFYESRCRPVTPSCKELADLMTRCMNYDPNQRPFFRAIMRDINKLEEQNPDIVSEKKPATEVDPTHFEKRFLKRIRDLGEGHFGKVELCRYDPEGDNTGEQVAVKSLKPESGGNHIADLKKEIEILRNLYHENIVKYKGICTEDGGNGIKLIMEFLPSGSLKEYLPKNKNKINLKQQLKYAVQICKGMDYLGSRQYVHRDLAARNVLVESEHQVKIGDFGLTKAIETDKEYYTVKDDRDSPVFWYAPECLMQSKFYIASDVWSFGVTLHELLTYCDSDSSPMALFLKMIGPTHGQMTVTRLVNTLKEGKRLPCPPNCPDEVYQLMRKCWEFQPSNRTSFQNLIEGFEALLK

[14] = target: Mitogen-activated protein kinase kinase kinase kinase 4 (Homo sapiens) (UniProt O95819); assay: Inhibition of recombinant human N-terminal GST/His6-tagged MAP4K4 (A7 to W1320) expressed in Sf9 insect cells at 20 nM using phosphatidylserine as substrate incubated for 60 mins in presence of [33P]-ATP by scintillation counting method
Sequence of Mitogen-activated protein kinase kinase kinase kinase 4 (Homo sapiens) (O95819 2-1239 limits assumed): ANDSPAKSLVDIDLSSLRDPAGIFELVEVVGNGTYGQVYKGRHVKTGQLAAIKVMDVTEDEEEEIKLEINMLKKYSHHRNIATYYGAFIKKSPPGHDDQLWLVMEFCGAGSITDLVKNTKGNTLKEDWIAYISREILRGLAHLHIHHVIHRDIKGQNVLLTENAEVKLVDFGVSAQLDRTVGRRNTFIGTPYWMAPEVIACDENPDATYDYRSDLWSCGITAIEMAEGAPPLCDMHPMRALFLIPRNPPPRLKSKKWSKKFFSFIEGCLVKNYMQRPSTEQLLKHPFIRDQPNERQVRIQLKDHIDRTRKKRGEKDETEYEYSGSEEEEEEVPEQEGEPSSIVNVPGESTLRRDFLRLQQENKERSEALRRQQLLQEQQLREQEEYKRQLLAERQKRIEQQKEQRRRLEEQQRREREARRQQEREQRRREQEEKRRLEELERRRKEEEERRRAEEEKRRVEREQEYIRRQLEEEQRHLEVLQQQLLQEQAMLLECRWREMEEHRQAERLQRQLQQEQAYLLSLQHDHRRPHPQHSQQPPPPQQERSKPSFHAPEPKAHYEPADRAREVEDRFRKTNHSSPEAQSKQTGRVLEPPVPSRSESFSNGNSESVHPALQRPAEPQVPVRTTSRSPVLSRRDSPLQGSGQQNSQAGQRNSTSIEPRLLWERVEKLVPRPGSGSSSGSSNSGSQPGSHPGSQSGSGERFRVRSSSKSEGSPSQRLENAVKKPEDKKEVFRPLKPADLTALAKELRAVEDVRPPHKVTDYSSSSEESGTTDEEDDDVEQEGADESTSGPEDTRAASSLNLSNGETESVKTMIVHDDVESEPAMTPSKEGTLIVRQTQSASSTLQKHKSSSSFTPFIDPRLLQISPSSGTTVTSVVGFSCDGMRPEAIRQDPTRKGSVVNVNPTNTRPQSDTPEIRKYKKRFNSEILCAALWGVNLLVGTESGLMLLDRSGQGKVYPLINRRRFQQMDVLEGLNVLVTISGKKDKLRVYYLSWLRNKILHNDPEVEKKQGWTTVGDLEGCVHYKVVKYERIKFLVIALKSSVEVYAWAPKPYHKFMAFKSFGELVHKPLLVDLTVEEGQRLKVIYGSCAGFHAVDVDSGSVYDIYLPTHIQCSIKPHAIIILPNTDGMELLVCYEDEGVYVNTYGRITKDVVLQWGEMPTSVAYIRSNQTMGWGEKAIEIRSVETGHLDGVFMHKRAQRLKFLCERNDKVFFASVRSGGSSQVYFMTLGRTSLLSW

[15] = target: MAP kinase-activated protein kinase 2 (Homo sapiens) (UniProt P49137); assay: Inhibition of recombinant human full length N-terminal GST/His6-tagged MAPKAPK2 (M1 to L370) expressed in Sf9 insect cells at 20 nM using phosphatidylserine as substrate incubated for 60 mins in presence of [33P]-ATP by scintillation counting method
[16] = target: Serine/threonine-protein kinase 3 (Homo sapiens) (UniProt Q13188); assay: Inhibition of recombinant human full length MST2 (M1 to F491) expressed in Sf9 insect cells at 20 nM using phosphatidylserine as substrate incubated for 60 mins in presence of [33P]-ATP by scintillation counting method
[17] = target: Serine/threonine-protein kinase PAK 2 (Homo sapiens) (UniProt Q13177); assay: Inhibition of recombinant human N-terminal GST/His6-tagged PAK2 (D3 to R524) expressed in Sf9 insect cells at 20 nM using phosphatidylserine as substrate incubated for 60 mins in presence of [33P]-ATP by scintillation counting method
Homo sapiens = species: Homo sapiens; assay: Inhibition of PKA (unknown origin) at 20 nM using phosphatidylserine as substrate incubated for 60 mins in presence of [33P]-ATP by scintillation counting method
[18] = target: Protein kinase C beta type (Homo sapiens) (UniProt P05771); assay: Inhibition of recombinant human full length N-terminal GST/His6-tagged PKC-beta2 (M1 to S673) expressed in Sf9 insect cells at 20 nM using phosphatidylserine as substrate incubated for 60 mins in presence of [33P]-ATP by scintillation counting method
[19] = target: cGMP-dependent protein kinase 1 (Homo sapiens) (UniProt Q13976); assay: Inhibition of PRKG1 (unknown origin) at 20 nM using cGMP as substrate incubated for 60 mins in presence of [33P]-ATP by scintillation counting method
[20] = target: Rho-associated protein kinase 2 (Homo sapiens) (UniProt O75116); assay: Inhibition of recombinant human N-terminal GST/His6-tagged ROCK2 internal (P6 to S553) expressed in baculovirus infected Sf9 insect cells at 20 nM using phosphatidylserine as substrate incubated for 60 mins in presence of [33P]-ATP by scintillation counting method
[21] = target: Ribosomal protein S6 kinase alpha-5 (Homo sapiens) (UniProt O75582); assay: Inhibition of RPS6KA5 (unknown origin) at 20 nM using phosphatidylserine as substrate incubated for 60 mins in presence of [33P]-ATP by scintillation counting method
Sequence of Ribosomal protein S6 kinase alpha-5 (Homo sapiens) (O75582 whole entry, looked up): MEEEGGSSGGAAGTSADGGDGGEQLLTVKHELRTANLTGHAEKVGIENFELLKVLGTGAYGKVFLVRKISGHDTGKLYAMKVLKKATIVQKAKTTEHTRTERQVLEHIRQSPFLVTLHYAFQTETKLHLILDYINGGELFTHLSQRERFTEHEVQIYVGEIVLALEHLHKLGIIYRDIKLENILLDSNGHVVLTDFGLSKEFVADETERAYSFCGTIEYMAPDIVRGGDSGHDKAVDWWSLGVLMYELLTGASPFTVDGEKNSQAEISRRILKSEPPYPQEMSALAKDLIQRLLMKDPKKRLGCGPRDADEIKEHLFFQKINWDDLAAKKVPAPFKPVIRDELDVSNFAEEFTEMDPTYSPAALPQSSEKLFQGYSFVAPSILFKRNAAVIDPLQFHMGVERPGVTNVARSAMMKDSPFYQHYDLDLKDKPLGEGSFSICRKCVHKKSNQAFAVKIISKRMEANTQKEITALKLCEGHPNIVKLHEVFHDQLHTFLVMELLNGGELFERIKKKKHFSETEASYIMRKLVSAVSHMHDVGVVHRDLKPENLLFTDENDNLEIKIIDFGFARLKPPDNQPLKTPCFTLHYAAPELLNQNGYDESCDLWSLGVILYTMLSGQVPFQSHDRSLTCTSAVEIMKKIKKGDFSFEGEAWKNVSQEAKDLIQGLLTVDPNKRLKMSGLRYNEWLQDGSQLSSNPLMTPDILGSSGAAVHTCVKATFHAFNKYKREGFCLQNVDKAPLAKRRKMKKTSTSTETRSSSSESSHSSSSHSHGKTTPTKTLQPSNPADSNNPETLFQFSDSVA

[22] = target: Ribosomal protein S6 kinase beta-1 (Homo sapiens) (UniProt P23443); assay: Inhibition of recombinant human N-terminal GST/His6-tagged S6K internal ([…]) expressed in Sf9 insect cells at 20 nM using phosphatidylserine as substrate incubated for 60 mins in presence of [33P]-ATP by scintillation counting method
Sequence of Ribosomal protein S6 kinase beta-1 (Homo sapiens) (P23443 whole entry, looked up): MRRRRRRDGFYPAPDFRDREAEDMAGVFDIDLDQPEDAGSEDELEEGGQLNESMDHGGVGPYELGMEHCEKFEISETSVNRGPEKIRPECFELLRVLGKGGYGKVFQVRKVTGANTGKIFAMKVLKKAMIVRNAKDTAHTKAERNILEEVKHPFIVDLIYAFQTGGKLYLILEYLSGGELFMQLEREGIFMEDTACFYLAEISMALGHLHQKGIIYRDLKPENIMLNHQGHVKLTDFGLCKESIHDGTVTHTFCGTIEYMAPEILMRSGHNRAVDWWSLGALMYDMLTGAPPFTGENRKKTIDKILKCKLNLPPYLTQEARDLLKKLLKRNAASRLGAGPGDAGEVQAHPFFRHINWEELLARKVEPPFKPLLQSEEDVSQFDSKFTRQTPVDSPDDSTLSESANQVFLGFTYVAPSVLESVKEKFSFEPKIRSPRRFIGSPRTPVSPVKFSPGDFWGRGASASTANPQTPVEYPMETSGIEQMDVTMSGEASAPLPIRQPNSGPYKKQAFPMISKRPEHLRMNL

[23] = target: Serine/threonine-protein kinase Sgk1 (Homo sapiens) (UniProt O00141); assay: Inhibition of recombinant human full length N-terminal GST and C-terminal His6-tagged SGK1 (M1 to L431) expressed in Sf9 insect cells at 20 nM using phosphatidylserine as substrate incubated for 60 mins in presence of [33P]-ATP by scintillation counting method
[24] = target: Vascular endothelial growth factor receptor 2 (Homo sapiens) (UniProt P35968); assay: Inhibition of recombinant human N-terminal GST-tagged VEGF-R2 C-terminal (G443 to G796) expressed in Sf9 insect cells at 20 nM using phosphatidylserine as substrate incubated for 60 mins in presence of [33P]-ATP by scintillation counting method
[25] = target: Casein kinase II subunit alpha (Homo sapiens) (UniProt P68400); assay: Inhibition of recombinant human full length N-terminal GST and C-terminal His6-tagged CK2-alpha (M1 to Q391) expressed in Sf9 insect cells at 20 nM using phosphatidylserine as substrate incubated for 60 mins in presence of [33P]-ATP by scintillation counting method

Work on Cn1cc(-c2n[nH]c3ccc(NCc4cc(F)ccc4S(C)(=O)=O)cc23)cn1 yielded a CLint scaled [1] of 127 mL/min/kg, a Papp A→B at 0.5 h, 50 µM [2] of 15.2 ×10⁻⁶ cm/s and a half-life [3] of 1.46 h. The fraction unbound [4] was 0.038, the IC50 [5] was 200 pM and the “Drug uptake(free)” value [6] was “Bld”. The “Cp(f)” value (Rattus norvegicus [7]) was 266.5 nM, the “Drug uptake(free)” value [8] was 3.5 nM and the Activity (Rattus norvegicus [9]) was “Active”. The inhibition [10] was -7%, the inhibition [11] was -7% and the inhibition [12] was -7%. For the same compound, the inhibition [13] was -5%, the inhibition [14] was 5% and the inhibition [15] was 19%. The inhibition [16] was 3%, the inhibition [17] was 12% and the inhibition (Homo sapiens) was -8%. For the same compound, the inhibition [18] was 5%, the inhibition [19] was -5% and the inhibition [20] was 5%. For the same compound, the inhibition [21] was 5%, the inhibition [22] was 3% and the inhibition [23] was -1%. For the same compound, the inhibition [24] was 4% and the inhibition [25] was 7%.

Source: ChEMBL document CHEMBL4346729, “The discovery of novel 3-aryl-indazole derivatives as peripherally restricted pan-Trk inhibitors for the treatment of pain” (Bioorg Med Chem Lett, 2019)
